Like-named read-outs stand apart in the source and are kept apart here. Blank lines part the entries; values can stand above or below the compound they belong to.
Tests used:
[1] = Plasma stability (50% serum, LC/MS/MS); type: in vitro ADME
Protocol: Samples were taken after 2 min, 5min, 15min, 30min, 1h, 2h and 19h. Stability of compound was quantified by LC/MS/MS. Experiments were carried out by Pharmaron, Inc., (Beijing, China).

[2] = Pharmacokinetic study in mice; type: in vivo, male CD1 mice; parameters: AUClast/D: unit not given here; conditions: for half-life / bioavailability: male, CD1, mouse
[3] = system: DNA synthesis in E. faecalis EF1509; test: Macromolecular synthesis assay: DNA synthesis; type: cell-based; conditions: Enterococcus faecalis; E. faecalis EF1509, [3H]Thymidine incorporation; read-out: IC50 inhibition of DNA synthesis
Protocol: The effect of compounds on the macromolecular synthetic pathways of E. faecalis EF1509 were measured as follows: Cells were grown at 35°C overnight on Tryptic Soy Agar Broth (Remel, Lenexa, KS), and growth from the plate was used to inoculate 15 ml of Mueller Hinton Broth. The culture was grown to early exponential growth phase (OD600 = 0.2 to 0.3) while incubating in a shaker at 35°C and 150 rpm. For each macromolecular assay, the test agents were added at either 0, 0.25, 0.5, 1, 2, or 4, -fold their respective MIC values for E. faecalis EF1509.
For DNA and protein synthesis, 100 μl of cell culture reaching early exponential phase was added to triplicate wells containing various concentrations of test compound or control antibiotics (2.5 μl) at 40X the final concentration in 100% DMSO (0.1% methanol in water for Rifampicin). A 2.5% DMSO treated culture served as the “no drug” control for all experiments. Cells were added in 1.25X strength MHB to account for the volume of drug added to each reaction, or in M9 minimal medium for protein synthesis reactions. […] After washing five times with 200 μl per well of cold 5% TCA, the filters were allowed to dry, and then counted using a Packard Top Count microplate scintillation counter.

P. aeruginosa X13273 = test: Antibacterial activity (MIC, broth dilution); type: cell-based; conditions: CLSI, in µg/mL
Protocol: (§1) Determination of the Minimal Inhibitory Concentrations (MIC) by dilution was carried out by broth dilution according to CLSI standards.

S. aureus MRSA 1094 = test: Antibacterial activity (MIC, broth dilution); type: cell-based; conditions: CLSI
Protocol: as §1

[4] = system: K. pneumoniae NR-15411 (KPC); test: Antibacterial activity (MIC, broth dilution); type: cell-based; conditions: CLSI
Protocol: as §1

E. aerogenes ATCC 13048 = test: Antibacterial activity (MIC, broth dilution); type: cell-based; conditions: CLSI
Protocol: as §1

E. cloacae ATCC 13047 = test: Antibacterial activity (MIC, broth dilution); type: cell-based; conditions: CLSI
Protocol: as §1

P. aeruginosa PA01 = test: Antibacterial activity (MIC, broth dilution); type: cell-based; conditions: CLSI
Protocol: as §1

[5] = system: S. aureus HFH-30123 (MRSA); test: Antibacterial activity (MIC, broth dilution); type: cell-based; conditions: CLSI
Protocol: as §1

[6] = system: K. pneumoniae NR-15410 (KPC); test: Antibacterial activity (MIC, broth dilution); type: cell-based; conditions: CLSI
Protocol: as §1

[7] = system: cell wall synthesis in E. faecalis EF1509; test: Macromolecular synthesis assay: cell wall synthesis; type: cell-based; conditions: Enterococcus faecalis; E. faecalis EF1509, [14C] N-acetyl-glucosamine incorporation; read-out: IC50 inhibition of cell wall synthesis
Protocol: The effect of compounds on the macromolecular synthetic pathways of E. faecalis EF1509 were measured as follows: Cells were grown at 35°C overnight on Tryptic Soy Agar Broth (Remel, Lenexa, KS), and growth from the plate was used to inoculate 15 ml of Mueller Hinton Broth. The culture was grown to early exponential growth phase (OD600 = 0.2 to 0.3) while incubating in a shaker at 35°C and 150 rpm. For each macromolecular assay, the test agents were added at either 0, 0.25, 0.5, 1, 2, or 4, -fold their respective MIC values for E. faecalis EF1509. […] For cell wall synthesis, bacterial cells in early exponential growth phase were transferred to M9 minimal medium and added to 1.5 ml eppendorf tubes (100 μl/tube) containing various concentrations of test compound or control antibiotics (2.5 μl) at 40X the final concentration in 100% DMSO as described above. Following a 5 min incubation at 37°C, [^14C] N-acetyl-glucosamine (0.4 μCi/reaction) was added to each tube and incubated for 45 min in a 37°C heating block. Reactions were stopped through the addition of 100 μl of 8% SDS to each tube. […] After washing three times with 5 ml of 0.1% SDS, the filters were rinsed two times with 5 ml of deionized water, allowed to dry, and then counted using a Beckman LS3801 liquid scintillation counter.

[8] = Tolerability in mice (maximum tolerated dose, clinical observations); conditions: C57BL/6J, mouse, in vivo, ip, 100 mg/kg, intraperitoneal, read-out: Dose safely administered intraperitoneally (preliminary maximum tolerated dose studies)
[9] = Cytotoxicity against mammalian cells (MTS assay); type: cell-based; conditions: human, HeLa cells (ATCC CCL-2.2)
Summary of the method: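 HeLa cells exposed 72 h in RPMI1640 to compounds at 64 to 0.125 μg/ml, in triplicate. Viability measured as mitochondrial activity by MTS, and CC50 taken against a standard curve of serially diluted untreated cells.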

[10] = PO 5 mg/kg, male CD1 mice, 5 mg/kg
[11] = mouse, plasma, IV 2.5 mg/kg, male CD1 mice
[12] = mouse, plasma, PO 5 mg/kg, male CD1 mice

Structure (SMILES): CN(C)c1ccc(/C=C/c2cc(-c3ccc(Br)cc3)cc(-c3ccc(Br)cc3)[o+]2)cc1 [6jc48-1]
Stability in serum ([1]; after 2 hours): fully stable after 2 hours in serum | Compound remaining in serum ([1]; after 19h, 10 μg/ml): 46% | AUClast/D ([2]; IV […], male CD1 mice): 536±47 | AUCExtrap ([2]; PO 5 mg/kg, male CD1 mice): 48.6% | AUClast/D ([2]; PO 5 mg/kg, male CD1 mice): 9.4 | Vss_obs ([2]; PO 5 mg/kg, male CD1 mice): 1.75 L/kg | Finf (bioavailability) [2, 10]: 2.54% | T1/2 [2, 10]: 2.78 h | half-life ([2]; plasma, iv, […], male CD1 mice): > 780 min | half-life ([2]; plasma, po, 5 mg/kg, PO 5 mg/kg, male CD1 mice): ~180 min | bioavailability ([2]; plasma, po, 5 mg/kg, PO 5 mg/kg, male CD1 mice, read-out: Finf (bioavailability)): ~2.5% | bioavailability ([2]; plasma, po, 5 mg/kg, PO 5 mg/kg, male CD1 mice, read-out: Flast (bioavailability)): 1.9% | AUC(0-inf) [2, 11]: 1770 ± 120 ng·h/mL | AUC(0-t) [2, 11]: 1340 ± 117 ng·h/mL | Cmax [2, 11]: 1040 ± 323 ng/mL | MRT [2, 11]: 7.29 ± 0.27 h | clearance ([2]; mouse, plasma, IV 2.5 mg/kg, male CD1 mice, read-out: Cl_obs): 23.6 ± 1.7 mL/min/kg | AUC(0-inf) [2, 12]: 90 ng·h/mL | AUC(0-t) [2, 12]: 46.9 ng·h/mL | Cmax [2, 12]: 19.1 ng/mL | IC50 [3]: 8.3 µg/mL | Antibacterial activity (MIC) P. aeruginosa X13273 (P. aeruginosa X13273): >=64 | Antibacterial activity (MIC) S. aureus MRSA 1094 (S. aureus MRSA 1094): 32 µg/mL | Antibacterial activity (MIC) K. pneumoniae NR-15411 (KPC) [4]: ≥ 64 µg/mL | Antibacterial activity (MIC) E. aerogenes ATCC 13048 (E. aerogenes ATCC 13048): ≥ 64 µg/mL | Antibacterial activity (MIC) E. cloacae ATCC 13047 (E. cloacae ATCC 13047): ≥ 64 µg/mL | Antibacterial activity (MIC) P. aeruginosa PA01 (P. aeruginosa PA01): ≥ 64 µg/mL | Antibacterial activity (MIC) S. aureus HFH-30123 (MRSA) [5]: 32 µg/mL | Antibacterial activity (MIC) K. pneumoniae NR-15410 (KPC) [6]: ≥ 64 µg/mL | IC50 [7]: 3.8 µg/mL | MTD [8]: ≥ 100 mg/kg | CC50 at 72 h [9]: > 100 µg/mL

Detection in plasma upon oral administration ([2]; oral administration (not shown)): could not be detected | IC50 [3]: 1.8 µg/mL | Antibacterial activity (MIC) P. aeruginosa X13273 (P. aeruginosa X13273): >=64 | Antibacterial activity (MIC) S. aureus MRSA 1094 (S. aureus MRSA 1094): 0.5 µg/mL | Antibacterial activity (MIC) K. pneumoniae NR-15411 (KPC) [4]: 16 µg/mL | Antibacterial activity (MIC) E. aerogenes ATCC 13048 (E. aerogenes ATCC 13048): 16 µg/mL | Antibacterial activity (MIC) E. cloacae ATCC 13047 (E. cloacae ATCC 13047): 32 µg/mL | Antibacterial activity (MIC) P. aeruginosa PA01 (P. aeruginosa PA01): 64 µg/mL | Antibacterial activity (MIC) S. aureus HFH-30123 (MRSA) [5]: 0.5 µg/mL | Antibacterial activity (MIC) K. pneumoniae NR-15410 (KPC) [6]: 8 µg/mL | IC50 [7]: 1.1 µg/mL
Structure (SMILES): CN1/C(=C/C=C/c2cc(-c3ccccc3)cc(-c3ccccc3)[o+]2)C(C)(C)c2ccccc21 [BAS-00127538, (1-Methyl-2,4-diphenyl-6-((1E,3E)-3-(1,3,3-trimethylindolin-2-ylidene)prop-1-en-1-yl)pyryl-1-ium) tetrafluoroborate, reference compound]

From PMC5077133, “Towards Development of Small Molecule Lipid II Inhibitors as Novel Antibiotics” (PLoS ONE, 2016)
